We go through 13 compounds from US11111214B2 (priority 2013, dated 2021).

Experiment in data set [1]: not given
The source holds these as a separate data set.

Data set [2] can be described thus: in vitro. The following applies: rat, hepatocytes.
The nature of data set [3]: in vitro. The following applies: human, hepatocytes.
Data set [4] addresses T1, recombinant human kappa (KOR) opioid receptor (Homo sapiens, UniProt P41145).
T1 construct: expressed in transfected cells; host or cells: CHO-K1 cell membranes
The data set can be described thus: biochemical. The data set is classed as binding.

In data set [5] the target is T2, recombinant human mu (MOR) opioid receptor (Homo sapiens, UniProt P35372).
T2 construct: expressed in transfected cells; host or cells: CHO-K1 cell membranes
T2 sequence (P35372 whole entry): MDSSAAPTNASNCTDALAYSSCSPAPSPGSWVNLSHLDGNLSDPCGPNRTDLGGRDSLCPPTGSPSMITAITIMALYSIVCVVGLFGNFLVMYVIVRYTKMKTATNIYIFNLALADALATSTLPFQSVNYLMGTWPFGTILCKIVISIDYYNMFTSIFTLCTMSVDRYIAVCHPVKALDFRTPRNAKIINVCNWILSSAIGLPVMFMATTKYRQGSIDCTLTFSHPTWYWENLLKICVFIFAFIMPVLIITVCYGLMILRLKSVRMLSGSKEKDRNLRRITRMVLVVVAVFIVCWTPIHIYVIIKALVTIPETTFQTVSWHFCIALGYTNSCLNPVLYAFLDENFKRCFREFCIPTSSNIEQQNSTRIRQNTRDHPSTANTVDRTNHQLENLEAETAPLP
As to the kind of experiment: biochemical. Type of data set: binding. The following applies: for inhibition at 10 µM: read-out: Mu receptor % inhibition at single concentration, % inhibition @ 10 μM.

Data set [6] addresses T3, KOR (kappa opioid receptor) (Homo sapiens, UniProt P41145).
T3 construct: expressed in transfected cells; host or cells: CHO-K1 cells stably expressing KOR
As to the kind of experiment: cell-based.

Each structure is given as a SMILES string.

T3 sequence (P41145 whole entry): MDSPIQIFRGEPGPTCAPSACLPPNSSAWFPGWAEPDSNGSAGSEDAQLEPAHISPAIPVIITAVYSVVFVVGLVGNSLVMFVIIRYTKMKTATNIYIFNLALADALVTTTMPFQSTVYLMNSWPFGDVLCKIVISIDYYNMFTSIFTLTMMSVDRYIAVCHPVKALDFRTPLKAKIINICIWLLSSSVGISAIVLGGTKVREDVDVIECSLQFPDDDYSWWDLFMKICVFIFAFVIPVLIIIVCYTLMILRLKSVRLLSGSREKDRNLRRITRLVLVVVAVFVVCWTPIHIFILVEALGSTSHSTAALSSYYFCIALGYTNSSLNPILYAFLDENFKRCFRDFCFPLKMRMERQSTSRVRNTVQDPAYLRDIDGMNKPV
T1 sequence (P41145 whole entry): as above

As for `CN(C(=O)C(c1ccccc1)c1ccccc1)[C@H](CN1CC[C@H](O)C1)c1ccccc1` [Asimadoline, asimadoline, reference compound], the “In vitro Hepatocyte Clearance, Rat % hep Blood flow” value was 85.0%. For the same compound, the “In vitro Hepatocyte Clearance, Human % hep Blood flow” value in data set [1] is given as 79.0%. In the data set “in vitro [2]”, the CLhep predicted was 51 mL/min/kg. The CLhep predicted in “in vitro [3]” is 18.2 mL/min/kg.
With `CN(C(=O)Cc1ccc(Cl)c(Cl)c1)[C@H](CN1CCCC1)c1ccccc1` [ICI-199,441, reference compound], the “In vitro Hepatocyte Clearance, Rat % hep Blood flow” value turned out to be 73.0%. In data set [1], the “In vitro Hepatocyte Clearance, Human % hep Blood flow” value came to 85.0%. The CLhep predicted in the data set “in vitro [2]” is 44 mL/min/kg. Also, the CLhep predicted in the data set “in vitro [3]” was 19.7 mL/min/kg.
In the case of `COCCOCCOCCO[C@H]1CCN(C[C@H](c2ccccc2)N(C)C(=O)Cc2ccc(Cl)c(Cl)c2)C1.Cl` [compound 4, 2-(3,4-Dichlorophenyl)-N-{(1S)-2-[(3S)-3-(2-(2-(2-methoxyethoxy)ethoxy]ethoxy)pyrrolidin-1-yl)-1-phenylethyl}-N-methylacetamide], the “In vitro Hepatocyte Clearance, Rat % hep Blood flow” value was found to be 82%. Besides, in data set [4], the IC50 (usually the concentration at which inhibition is half-maximal) is 8.9 nM and the Ki (commonly a dissociation constant, usually derived from enzyme kinetics or from competition with a known ligand) was determined as 2.1 nM. Further, in data set [5], the IC50 turned out to be 20400 nM and the inhibition at 10 µM was 82%. In data set [6], the 50% effective concentration (EC50) (usually the concentration at which the effect is half-maximal) is 0.42 nM. Moreover, the “In vitro Hepatocyte Clearance, Human % hep Blood flow” value in data set [1] is 84%. Moreover, in “in vitro [2]”, the CLhep predicted is 49 mL/min/kg. Further, in “in vitro [3]”, the CLhep predicted is 19.4 mL/min/kg.
Turning to `COCCOCCOCCNC(=O)O[C@H]1CCN(C[C@H](c2ccccc2)N(C)C(=O)Cc2ccc(Cl)c(Cl)c2)C1.Cl` [compound 5, (3S)-1-[(2S)-2-{[(3,4-Dichlorophenyl)acetyl](methyl)amino}-2-phenylethyl]pyrrolidin-3-yl {2-[2-(2-methoxyethoxy)ethoxy]ethyl}carbamate], the “In vitro Hepatocyte Clearance, Rat % hep Blood flow” value came out at 82%. Also, in data set [4], the IC50 worked out at 1190 nM and the Ki turned out to be 275 nM. The inhibition at 10 µM in data set [5] was 35.6%. In addition, in data set [6], it took 75.7 nM to reach a half-maximal effect (EC50). Further, the “In vitro Hepatocyte Clearance, Human % hep Blood flow” value in data set [1] was 88%. The CLhep predicted in the data set “in vitro [2]” was 49.1 mL/min/kg. In addition, in the data set “in vitro [3]”, the CLhep predicted is 20.4 mL/min/kg.
`COCCOCCOCCOCCOCCNC(=O)O[C@H]1CCN(C[C@H](c2ccccc2)N(C)C(=O)Cc2ccc(Cl)c(Cl)c2)C1.Cl` [compound 6, (3S)-1-[(2S)-2-{[(3,4-Dichlorophenyl)acetyl](methyl)amino}-2-phenylethyl]pyrrolidin-3-yl 2,5,8,11,14-pentaoxahexadecan-16-ylcarbamate]: the “In vitro Hepatocyte Clearance, Rat % hep Blood flow” value is reported as 81%. Also, in data set [4], the IC50 worked out at 1100 nM and the Ki came to 255 nM. Further, in data set [5], the IC50 stood at 31200 nM and the inhibition at 10 µM came to 20.6%. In addition, in data set [6], the EC50 was determined as 56 nM. Also, the “In vitro Hepatocyte Clearance, Human % hep Blood flow” value in data set [1] is recorded as 86%. Also, in the data set “in vitro [2]”, the CLhep predicted is 48.8 mL/min/kg. Further, the CLhep predicted in the data set “in vitro [3]” was 20.1 mL/min/kg.
For the compound `CCN(CCOC)C[C@H](c1ccccc1)N(C)C(=O)Cc1ccc(Cl)c(Cl)c1.Cl` [compound 10, 2-(3,4-Dichlorophenyl)-N-{(1S)-2-[ethyl(2-methoxyethyl)amino]-1-phenylethyl}-N-methylacetamide], the “In vitro Hepatocyte Clearance, Rat % hep Blood flow” value turned out to be 83%. In data set [4], the IC50 was found to be 82.7 nM and the Ki stood at 19.1 nM. Moreover, the inhibition at 10 µM in data set [5] was 82.8%. The EC50 in data set [6] came out at 3.1 nM. Besides, in data set [1], the “In vitro Hepatocyte Clearance, Human % hep Blood flow” value is listed as 89%. In the data set “in vitro [2]”, the CLhep predicted was 49.7 mL/min/kg. Moreover, the CLhep predicted in “in vitro [3]” was 20.6 mL/min/kg.
For `CN(C(=O)Cc1ccc(Cl)c(Cl)c1)[C@H](CN1CCCC1)c1cccc(NS(=O)(=O)CCOCC(F)(F)F)c1.Cl` [compound 19, 2-(3,4-dichlorophenyl)-N-methyl-N-{(1S)-2-(pyrrolidin-1-yl)-1-[3-({[2-(2,2,2-trifluoroethoxy)ethyl]sulfonyl}amino)phenyl]ethyl}acetamide], the “In vitro Hepatocyte Clearance, Rat % hep Blood flow” value is listed as 45%. For the same compound, in data set [4], the IC50 came to 0.69 nM and the Ki turned out to be 0.16 nM. For the same compound, the inhibition at 10 µM in data set [5] came to 99.1%. This compound also gave an EC50 in data set [6] of 0.08 nM. Also, the “In vitro Hepatocyte Clearance, Human % hep Blood flow” value in data set [1] turned out to be 50%. In “in vitro [2]”, the CLhep predicted was 26.8 mL/min/kg. Besides, in “in vitro [3]”, the CLhep predicted is 11.7 mL/min/kg.
Take `COCCOCCOCCOCCOCCOc1ccc([C@@H](CN2CCCC2)N(C)C(=O)Cc2ccc(Cl)c(Cl)c2)cc1.Cl` [compound 34, (S)—N-(1-(4-(2,5,8,11,14-pentaoxahexadecan-16-yloxy)phenyl)-2-(pyrrolidin-1-yl)ethyl)-2-(3,4-dichlorophenyl)-N-methylacetamide]: the “In vitro Hepatocyte Clearance, Rat % hep Blood flow” value is listed as 26%. In data set [4], the IC50 came to 107 nM and the Ki turned out to be 24.6 nM. Besides, the inhibition at 10 µM in data set [5] was found to be 17.6%. Also, the EC50 in data set [6] amounted to 13 nM. In addition, the “In vitro Hepatocyte Clearance, Human % hep Blood flow” value in data set [1] was 71%. The CLhep predicted in the data set “in vitro [2]” was 15.4 mL/min/kg. Further, the CLhep predicted in “in vitro [3]” is 16.4 mL/min/kg.
Consider `COCCOCCOCCOCCOCCNc1ccc([C@@H](CN2CCCC2)N(C)C(=O)Cc2ccc(Cl)c(Cl)c2)cc1` [compound 35, (S)—N-(1-(4-(2,5,8,11,14-pentaoxahexadecan-16-ylamino)phenyl)-2-(pyrrolidin-1-yl)ethyl)-2-(3,4-dichlorophenyl)-N-methylacetamide], for which the “In vitro Hepatocyte Clearance, Rat % hep Blood flow” value stood at 44%. Further, in data set [4], the IC50 was determined as 24.7 nM and the Ki amounted to 5.7 nM. Besides, the inhibition at 10 µM in data set [5] came out at 30.6%. The same compound came in with an EC50 in data set [6] of 2.59 nM. Further, the “In vitro Hepatocyte Clearance, Human % hep Blood flow” value in data set [1] is on record as 65%. The CLhep predicted in the data set “in vitro [2]” was 26.5 mL/min/kg. The CLhep predicted in the data set “in vitro [3]” was 15 mL/min/kg.
On to `CN(C(=O)Cc1ccc(Cl)c(Cl)c1)[C@H](CN1CCCC1)c1ccc(OCCO)cc1.Cl` [compound 36, (S)-2-(3,4-dichlorophenyl)-N-(1-(4-(2-hydroxyethoxy)phenyl)-2-(pyrrolidin-1-yl)ethyl)-N-methylacetamide], for which the “In vitro Hepatocyte Clearance, Rat % hep Blood flow” value amounted to 24%. In data set [4], the IC50 came to 0.43 nM and the Ki worked out at 0.1 nM. In addition, the inhibition at 10 µM in data set [5] stood at 64.9%. The same compound yielded an EC50 in data set [6] of 0.029 nM. For the same compound, in data set [1], the “In vitro Hepatocyte Clearance, Human % hep Blood flow” value amounted to 71%. Besides, in the data set “in vitro [2]”, the CLhep predicted is 14.3 mL/min/kg. The CLhep predicted in the data set “in vitro [3]” is 16.5 mL/min/kg.
For the compound `COCCOCCOCCOCCOCCOCCOCCOC(=O)NC1(C(=O)Nc2cccc([C@@H](CN3CC[C@H](O)C3)N(C)C(=O)Cc3ccc(Cl)c(Cl)c3)c2)CC1` [compound 49, 2,5,8,11,14,17,20-Heptaoxadocosan-22-yl {1-[(3-{(1S)-1-{[(3,4dichlorophenyl)acetyl](methyl)amino}-2-[(3S)-3-hydroxypyrrolidin-1yl]ethyl}phenyl)carbamoyl]cyclopropyl}carbamate], in data set [4], the IC50 worked out at 1.61 nM and the Ki amounted to 0.37 nM. Also, in data set [5], the inhibition at 10 µM was 78.1%. Besides, in data set [6], the EC50 turned out to be 0.11 nM.
On to `COCCOCC(=O)Nc1cccc([C@@H](CN2CC[C@H](O)C2)N(C)C(=O)Cc2ccc(Cl)c(Cl)c2)c1` [compound 50, 2-(3,4-dichlorophenyl)-N-[(1S)-2-[(3S)-3-hydroxypyrrolidin-1-yl]-1-(3-{[(2-methoxyethoxy)acetyl]amino}phenyl)ethyl]-N-methylacetamide], for which, in data set [4], the IC50 is 0.52 nM and the Ki was determined as 0.12 nM. In addition, in data set [5], the inhibition at 10 µM worked out at 101%. In addition, the EC50 in data set [6] worked out at 0.06 nM.
`CN(C(=O)C(c1ccccc1)c1ccccc1)[C@H](CN1CCCC1)c1cccc(N)c1` [compound 51, (S)—N-Methyl-N-(1-(3-aminophenyl)-2-(pyrrolidin-1-yl)ethyl)-2,2-diphenylacetamide]: in data set [4], the IC50 was 62.2 nM and the Ki stood at 14.3 nM. Also, the inhibition at 10 µM in data set [5] came out at 54.5%. Besides, it took 5.18 nM to reach a half-maximal effect in data set [6] (EC50).
